{"source": "patent US10195165B2", "about": "“Methods of treating Prader-Willi syndrome” (Ovid Therapeutics Inc., priority 2015, dated 2019)", "origin": "cited, not measured here", "key": {"[1]": {"test_system": "Brain Derived Neurotrophic Factor (BDNF)"}, "[2]": {"test_system": "subjects with mild to moderate anxiety weaned from benzodiazepine"}, "C57B16 mice [3]": {"test_system": "C57B16 mice", "details": "3 and 5 mg/kg intraperitoneal once daily for 7 days"}, "C57B16 mice [4]": {"test_system": "C57B16 mice", "details": "3 and 5 mg/kg intraperitoneal once daily for 7 days", "remark": "listed apart in the source"}, "C57B16 mice [5]": {"test_system": "C57B16 mice", "details": "3 and 5 mg/kg intraperitoneal once daily for 7 days", "remark": "listed apart in the source"}, "Sigma 2 receptor": {"target": "T1, Sigma 2 receptor (Homo sapiens, UniProt Q5BJF2)", "T1 construct": "Novascreen", "T1 sequence (Q5BJF2 whole entry, species assumed)": "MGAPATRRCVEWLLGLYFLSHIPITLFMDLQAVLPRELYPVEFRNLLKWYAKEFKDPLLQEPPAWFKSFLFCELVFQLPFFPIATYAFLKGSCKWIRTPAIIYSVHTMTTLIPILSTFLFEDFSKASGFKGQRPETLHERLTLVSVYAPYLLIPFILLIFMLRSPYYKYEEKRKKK", "details": "1 μM captodiamine competing with a reference ligand"}, "C57B16 mice [6]": {"test_system": "C57B16 mice", "details": "3 and 5 mg/kg intraperitoneal once daily for 7 days", "remark": "listed apart in the source"}, "C57B16 mice [7]": {"test_system": "C57B16 mice", "details": "3 and 5 mg/kg intraperitoneal once daily for 7 days", "remark": "listed apart in the source"}, "5-HT2C": {"target": "T2, 5-HT2C (Homo sapiens, UniProt P28335)", "T2 sequence (P28335 33-458)": "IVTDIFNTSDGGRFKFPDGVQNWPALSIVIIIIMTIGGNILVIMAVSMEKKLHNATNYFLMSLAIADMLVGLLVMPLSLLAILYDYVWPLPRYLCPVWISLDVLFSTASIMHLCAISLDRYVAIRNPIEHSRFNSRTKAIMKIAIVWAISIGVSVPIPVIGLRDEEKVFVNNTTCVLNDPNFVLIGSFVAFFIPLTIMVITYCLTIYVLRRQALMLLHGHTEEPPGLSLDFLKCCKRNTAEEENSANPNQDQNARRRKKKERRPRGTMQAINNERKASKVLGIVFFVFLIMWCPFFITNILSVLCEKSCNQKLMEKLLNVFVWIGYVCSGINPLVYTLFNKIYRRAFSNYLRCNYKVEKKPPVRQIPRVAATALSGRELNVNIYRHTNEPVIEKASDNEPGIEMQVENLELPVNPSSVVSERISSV"}, "[8]": {"test_system": "car driving ability of individuals", "details": "compared to lorazepam"}, "serotonin 5HT2c receptor": {"target": "T3, serotonin 5HT2c receptor (Homo sapiens, UniProt P28335)", "T3 construct": "Novascreen", "T3 sequence (P28335 33-458)": "T2 sequence (P28335 33-458)", "details": "1 μM captodiamine competing with a reference ligand"}, "Sigma 1 receptor [9]": {"target": "T4, Sigma 1 receptor (Homo sapiens, UniProt Q99720)", "T4 sequence (Q99720 whole entry, species assumed)": "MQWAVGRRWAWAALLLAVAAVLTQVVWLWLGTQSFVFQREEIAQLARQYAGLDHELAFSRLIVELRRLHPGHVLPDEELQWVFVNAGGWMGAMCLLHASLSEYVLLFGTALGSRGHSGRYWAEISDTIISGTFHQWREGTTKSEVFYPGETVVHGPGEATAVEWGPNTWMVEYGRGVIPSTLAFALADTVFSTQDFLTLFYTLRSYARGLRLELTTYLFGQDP"}, "C57B16 mice [10]": {"test_system": "C57B16 mice", "details": "3 mg/kg dose, intraperitoneal; one-tailed t-test"}, "Sigma 1 receptor [11]": {"target": "T4, Sigma 1 receptor", "set-up": "Novascreen", "details": "1 μM captodiamine competing with a reference ligand"}, "[12]": {"test_system": "brain-derived neurotrophic factor (BDNF)"}, "dopamine D3 [13]": {"target": "T5, dopamine D3 (Homo sapiens, UniProt P35462)", "set-up": "Novascreen", "details": "1 μM captodiamine competing with a reference ligand"}, "[14]": {"test_system": "Glial Derived Neurotrophic Factor (GDNF)"}, "dopamine D3 [15]": {"target": "T5, dopamine D3"}}, "data": [{"smiles": "CCCCSc1ccc(C(SCCN(C)C)c2ccccc2)cc1", "note": "(stereo not drawn) [captodiamine, 2-[(4-butylsulfanylphenyl)-phenylmethyl]sulfanyl-N,N-dimethylethanamine]", "values": [{"measurement": "BDNF expression levels and/or activity, hippocampus", "setting": "[1]; hippocampus", "result": "no effect"}, {"measurement": "levels of expression of BDNF, hypothalamus", "setting": "[1]; hypothalamus", "result": "significantly increased"}, {"measurement": "BDNF expression levels and/or activity, prefrontal cortex", "setting": "[1]; prefrontal cortex", "result": "no effect"}, {"measurement": "Tyrer Benzodiazepine Withdrawal Symptom Questionnaire (BWSQ) score", "setting": "[2]; 150 mg/d for 45 days versus placebo, primary outcome", "result": "statistically significant difference (p<0.0001; ANCOVA with repeated measures) between the two study groups in favor of captodiamine"}, {"measurement": "drowsiness score", "setting": "[2]; 150 mg/d versus placebo", "result": "declined from D0"}, {"measurement": "self-reported anxiety scores", "setting": "[2]; 150 mg/d versus placebo, weaning and assessment phases", "result": "anxiety scores evolved little during the weaning phase and then fell during the assessment phase"}, {"measurement": "re-emergence of anxiety or withdrawal symptoms after stopping captodiamine", "setting": "[2]; after treatment stopped at 45 days", "result": "no re-emergence of anxiety or evidence for withdrawal symptoms"}, {"measurement": "severity of benzodiazepine withdrawal symptoms", "setting": "[2]; compared to placebo, background summary", "result": "lower severity of benzodiazepine withdrawal symptoms"}, {"measurement": "basal locomotion in the open-field paradigm", "setting": "C57B16 mice [3]", "result": "no influence on basal locomotion"}, {"measurement": "time in the center of the arena (open-field)", "setting": "C57B16 mice [3]", "result": "significantly more time in the center"}, {"measurement": "water maze spatial learning task", "setting": "C57B16 mice [4]", "result": "significant pro-cognitive action"}, {"measurement": "exploring the open arms of the elevated X-maze", "setting": "C57B16 mice [5]", "result": "significantly longer periods exploring the open arms"}, {"measurement": "percent target inhibition, Sigma 2 receptor", "setting": "Sigma 2 receptor", "result": "greater than 20%"}, {"measurement": "pre-pulse inhibition paradigm", "setting": "C57B16 mice [6]", "result": "no effect on the pre-pulse inhibition paradigm"}, {"measurement": "time to immobility in the forced swim test", "setting": "C57B16 mice [7]", "result": "significant increase on time to immobility"}, {"measurement": "activity at 5-HT2C", "setting": "5-HT2C", "result": "5-HT2C antagonist"}, {"measurement": "concentration and dexterity when driving", "setting": "[8]", "result": "improved the concentration and dexterity"}, {"measurement": "tendency to drowsiness when driving", "setting": "[8]", "result": "without inducing a tendency to drowsiness"}, {"measurement": "percent target inhibition, serotonin 5HT2c receptor", "setting": "serotonin 5HT2c receptor", "result": "greater than 80%"}, {"measurement": "activity at sigma-1 receptor", "setting": "Sigma 1 receptor [9]", "result": "sigma-1 receptor agonist"}, {"measurement": "time investigating objects during the training phase, Novel Object Recognition Task", "setting": "C57B16 mice [10]", "result": "significantly longer investigating objects during the training phase"}, {"measurement": "percent target inhibition, Sigma 1 receptor", "setting": "Sigma 1 receptor [11]", "result": "greater than 90%"}, {"measurement": "BDNF protein levels, hypothalamus", "setting": "[12]", "result": "increase brain-derived neurotrophic factor (BDNF) protein levels in the hypothalamus"}, {"measurement": "percent target inhibition, dopamine D3 receptor", "setting": "dopamine D3 [13]", "result": "greater than 80%"}, {"measurement": "levels of expression of GDNF, hypothalamus", "setting": "[14]; hypothalamus", "result": "not in either the hippocampus or the hypothalamus"}, {"measurement": "levels of expression of GDNF, prefrontal cortex", "setting": "[14]; prefrontal cortex", "result": "significantly decreased"}, {"measurement": "activity at dopamine D3", "setting": "dopamine D3 [15]", "result": "dopamine D3 agonist"}]}]}
